Measurements as given in ChEMBL document CHEMBL4257449, “New N-(2-phenyl-4-oxo-1,3-thiazolidin-3-yl)-1,2-benzothiazole-3-carboxamides and acetamides as antimicrobial agents” (2017).
Values after ≈ are worked out from the molar mass of the structure shown.

Legend:
Penicillium ochrochloron [1] = assay: Antifungal activity against Penicillium ochrochloron ATCC 9112 after 72 hrs by serial dilution method; format: functional; details: ATCC 9112, 72 h
Bacillus cereus [2] = assay: Antibacterial activity against Bacillus cereus after 24 hrs by microdilution method; format: functional
Bacillus cereus [3] = assay: Bactericidal activity against Bacillus cereus incubated for 24 hrs followed by serial sub-cultivation and measured after 24 hrs by microdilution method; format: functional
Micrococcus flavus [4] = assay: Antibacterial activity against Micrococcus flavus ATCC 10240 after 24 hrs by microdilution method; format: functional; details: ATCC 10240, 24 h
Micrococcus flavus [5] = assay: Bactericidal activity against Micrococcus flavus ATCC 10240 incubated for 24 hrs followed by serial sub-cultivation and measured after 24 hrs by microdilution method; format: functional
Staphylococcus aureus [6] = assay: Antibacterial activity against Staphylococcus aureus ATCC 6538 after 24 hrs by microdilution method; format: functional; details: ATCC 6538, 24 h
Staphylococcus aureus [7] = assay: Bactericidal activity against Staphylococcus aureus ATCC 6538 incubated for 24 hrs followed by serial sub-cultivation and measured after 24 hrs by microdilution method; format: functional
Listeria monocytogenes [8] = assay: Antibacterial activity against Listeria monocytogenes NCTC 7973 after 24 hrs by microdilution method; format: functional; details: NCTC 7973, 24 h
Listeria monocytogenes [9] = assay: Bactericidal activity against Listeria monocytogenes NCTC 7973 incubated for 24 hrs followed by serial sub-cultivation and measured after 24 hrs by microdilution method; format: functional
Escherichia coli [10] = assay: Antibacterial activity against Escherichia coli ATCC 35210 after 24 hrs by microdilution method; format: functional; details: ATCC 35210, 24 h
Escherichia coli [11] = assay: Bactericidal activity against Escherichia coli ATCC 35210 incubated for 24 hrs followed by serial sub-cultivation and measured after 24 hrs by microdilution method; format: functional
Enterobacter cloacae [12] = assay: Antibacterial activity against Enterobacter cloacae after 24 hrs by microdilution method; format: functional
Enterobacter cloacae [13] = assay: Bactericidal activity against Enterobacter cloacae incubated for 24 hrs followed by serial sub-cultivation and measured after 24 hrs by microdilution method; format: functional
Pseudomonas aeruginosa [14] = assay: Antibacterial activity against Pseudomonas aeruginosa ATCC 27853 after 24 hrs by microdilution method; format: functional; details: ATCC 27853, 24 h
Pseudomonas aeruginosa [15] = assay: Bactericidal activity against Pseudomonas aeruginosa ATCC 27853 incubated for 24 hrs followed by serial sub-cultivation and measured after 24 hrs by microdilution method; format: functional
Salmonella typhimurium [16] = assay: Antibacterial activity against Salmonella typhimurium ATCC 13311 after 24 hrs by microdilution method; format: functional, Salmonella enterica subsp. enterica serovar Typhimurium; details: Salmonella enterica, ATCC 13311, 24 h
Salmonella typhimurium [17] = assay: Bactericidal activity against Salmonella typhimurium ATCC 13311 incubated for 24 hrs followed by serial sub-cultivation and measured after 24 hrs by microdilution method; format: functional, Salmonella enterica subsp. enterica serovar Typhimurium
Aspergillus versicolor [18] = assay: Antifungal activity against Aspergillus versicolor ATCC 11730 after 72 hrs by serial dilution method; format: functional; details: ATCC 11730, 72 h
Aspergillus fumigatus [19] = assay: Antifungal activity against Aspergillus fumigatus after 72 hrs by serial dilution method; format: functional
Aspergillus fumigatus [20] = assay: Fungicidal activity against Aspergillus fumigatus incubated for 72 hrs followed by serial sub-cultivation for 72 hrs and measured after 72 hrs by serial dilution method; format: functional
Aspergillus versicolor [21] = assay: Fungicidal activity against Aspergillus versicolor ATCC 11730 incubated for 72 hrs followed by serial sub-cultivation for 72 hrs and measured after 72 hrs by serial dilution method; format: functional
Aspergillus ochraceus [22] = assay: Antifungal activity against Aspergillus ochraceus ATCC 12066 after 72 hrs by serial dilution method; format: functional; details: ATCC 12066, 72 h
Aspergillus ochraceus [23] = assay: Fungicidal activity against Aspergillus ochraceus ATCC 12066 incubated for 72 hrs followed by serial sub-cultivation for 72 hrs and measured after 72 hrs by serial dilution method; format: functional
Aspergillus niger [24] = assay: Antifungal activity against Aspergillus niger ATCC 6275 after 72 hrs by serial dilution method; format: functional; details: ATCC 6275, 72 h
Aspergillus niger [25] = assay: Fungicidal activity against Aspergillus niger ATCC 6275 incubated for 72 hrs followed by serial sub-cultivation for 72 hrs and measured after 72 hrs by serial dilution method; format: functional
Trichoderma viride [26] = assay: Antifungal activity against Trichoderma viride IAM 5061 after 72 hrs by serial dilution method; format: functional; details: IAM 5061, 72 h
Trichoderma viride [27] = assay: Fungicidal activity against Trichoderma viride IAM 5061 incubated for 72 hrs followed by serial sub-cultivation for 72 hrs and measured after 72 hrs by serial dilution method; format: functional
Talaromyces funiculosus [28] = assay: Antifungal activity against Penicillium funiculosum ATCC 36839 after 72 hrs by serial dilution method; format: functional; details: ATCC 36839, 72 h
Talaromyces funiculosus [29] = assay: Fungicidal activity against Penicillium funiculosum ATCC 36839 incubated for 72 hrs followed by serial sub-cultivation for 72 hrs and measured after 72 hrs by serial dilution method; format: functional
Penicillium ochrochloron [30] = assay: Fungicidal activity against Penicillium ochrochloron ATCC 9112 incubated for 72 hrs followed by serial sub-cultivation for 72 hrs and measured after 72 hrs by serial dilution method; format: functional
Candida albicans [31] = assay: Antifungal activity against Candida albicans after 72 hrs by serial dilution method; format: functional
Candida albicans [32] = assay: Fungicidal activity against Candida albicans incubated for 72 hrs followed by serial sub-cultivation for 72 hrs and measured after 72 hrs by serial dilution method; format: functional

| Compound | MIC (Penicillium ochrochloron [1]) [µM] | MIC (Bacillus cereus [2]) [µM] | MBC99.5 (Bacillus cereus [3]) [×10⁻² umol/ml] | MIC (Micrococcus flavus [4]) [µM] | MBC99.5 (Micrococcus flavus [5]) [×10⁻² umol/ml] | MIC (Staphylococcus aureus [6]) [µM] | MBC99.5 (Staphylococcus aureus [7]) [×10⁻² umol/ml] | MIC (Listeria monocytogenes [8]) [µM] | MBC99.5 (Listeria monocytogenes [9]) [×10⁻² umol/ml] | MIC (Escherichia coli [10]) [µM] | MBC99.5 (Escherichia coli [11]) [×10⁻² umol/ml] | MIC (Enterobacter cloacae [12]) [µM] | MBC99.5 (Enterobacter cloacae [13]) [×10⁻² umol/ml] | MIC (Pseudomonas aeruginosa [14]) [µM] | MBC99.5 (Pseudomonas aeruginosa [15]) [×10⁻² umol/ml] | MIC (Salmonella typhimurium [16]) [µM] | MBC99.5 (Salmonella typhimurium [17]) [×10⁻² umol/ml] | MIC (Aspergillus versicolor [18]) [µM] | MIC (Aspergillus fumigatus [19]) [µM] | MFC99.5 (Aspergillus fumigatus [20]) [×10⁻² umol/ml] | further results |
| --- | --- | --- | --- | --- | --- | --- | --- | --- | --- | --- | --- | --- | --- | --- | --- | --- | --- | --- | --- | --- | --- |
| O=C(Cc1nsc2ccccc12)NN1C(=O)CSC1c1cccc(Cl)c1 (stereo not drawn) | 74 (≈ 29.9 µg/mL) | 198 (≈ 80 µg/mL) | 37.2 | 198 (≈ 80 µg/mL) | 37.2 | 100 (≈ 40.4 µg/mL) | 37.2 | 198 (≈ 80 µg/mL) | 37.2 | 198 (≈ 80 µg/mL) | 37.2 | 198 (≈ 80 µg/mL) | 37.2 | 198 (≈ 80 µg/mL) | 37.2 | 100 (≈ 40.4 µg/mL) | 37.2 | 100 (≈ 40.4 µg/mL) | 100 (≈ 40.4 µg/mL) | 37.2 | MFC99.5 (Aspergillus versicolor [21]): 19.2 ×10⁻² umol/ml; MIC (Aspergillus ochraceus [22]): 74 µM (≈ 29.9 µg/mL); MFC99.5 (Aspergillus ochraceus [23]): 10 ×10⁻² umol/ml; MIC (Aspergillus niger [24]): 100 µM (≈ 40.4 µg/mL); MFC99.5 (Aspergillus niger [25]): 19.2 ×10⁻² umol/ml; MIC (Trichoderma viride [26]): 50 µM (≈ 20.2 µg/mL); MFC99.5 (Trichoderma viride [27]): 10 ×10⁻² umol/ml; MIC (Talaromyces funiculosus [28]): 100 µM (≈ 40.4 µg/mL); MFC99.5 (Talaromyces funiculosus [29]): 19.8 ×10⁻² umol/ml; MFC99.5 (Penicillium ochrochloron [30]): 10 ×10⁻² umol/ml; MIC (Candida albicans [31]): 100 µM (≈ 40.4 µg/mL); MFC99.5 (Candida albicans [32]): 19.8 ×10⁻² umol/ml |
| O=C(NN1C(=O)CSC1c1c(F)cccc1F)c1nsc2ccccc12 (stereo not drawn) | 102 (≈ 39.9 µg/mL) | 102 (≈ 39.9 µg/mL) | 20.4 | 102 (≈ 39.9 µg/mL) | 20.4 | 102 (≈ 39.9 µg/mL) | 20.4 | 204 (≈ 79.9 µg/mL) | 40.8 | 102 (≈ 39.9 µg/mL) | 20.4 | 102 (≈ 39.9 µg/mL) | 20.4 | 204 (≈ 79.9 µg/mL) | 40.8 | 204 (≈ 79.9 µg/mL) | 40.8 | 204 (≈ 79.9 µg/mL) | 408 (≈ 160 µg/mL) | 51 | MFC99.5 (Aspergillus versicolor [21]): 40.8 ×10⁻² umol/ml; MIC (Aspergillus ochraceus [22]): 51 µM (≈ 20 µg/mL); MFC99.5 (Aspergillus ochraceus [23]): 10.2 ×10⁻² umol/ml; MIC (Aspergillus niger [24]): 204 µM (≈ 79.9 µg/mL); MFC99.5 (Aspergillus niger [25]): 40.8 ×10⁻² umol/ml; MIC (Trichoderma viride [26]): 51 µM (≈ 20 µg/mL); MFC99.5 (Trichoderma viride [27]): 10.2 ×10⁻² umol/ml; MIC (Talaromyces funiculosus [28]): 102 µM (≈ 39.9 µg/mL); MFC99.5 (Talaromyces funiculosus [29]): 20.4 ×10⁻² umol/ml; MFC99.5 (Penicillium ochrochloron [30]): 51 ×10⁻² umol/ml; MIC (Candida albicans [31]): 408 µM (≈ 160 µg/mL); MFC99.5 (Candida albicans [32]): 51 ×10⁻² umol/ml |
| O=C(Cc1nsc2ccccc12)NN1C(=O)CSC1c1c(F)cccc1F (stereo not drawn) | 148 (≈ 60 µg/mL) | 198 (≈ 80.3 µg/mL) | 37 | 272 (≈ 110 µg/mL) | 37 | 198 (≈ 80.3 µg/mL) | 37 | 543 (≈ 220 µg/mL) | 74 | 272 (≈ 110 µg/mL) | 37 | 198 (≈ 80.3 µg/mL) | 37 | 272 (≈ 110 µg/mL) | 37 | 198 (≈ 80.3 µg/mL) | 37 | 74 (≈ 30 µg/mL) | 296 (≈ 120 µg/mL) | 37 | MFC99.5 (Aspergillus versicolor [21]): 9.9 ×10⁻² umol/ml; MIC (Aspergillus ochraceus [22]): 74 µM (≈ 30 µg/mL); MFC99.5 (Aspergillus ochraceus [23]): 9.9 ×10⁻² umol/ml; MIC (Aspergillus niger [24]): 148 µM (≈ 60 µg/mL); MFC99.5 (Aspergillus niger [25]): 19.8 ×10⁻² umol/ml; MIC (Trichoderma viride [26]): 74 µM (≈ 30 µg/mL); MFC99.5 (Trichoderma viride [27]): 9.9 ×10⁻² umol/ml; MIC (Talaromyces funiculosus [28]): 74 µM (≈ 30 µg/mL); MFC99.5 (Talaromyces funiculosus [29]): 9.9 ×10⁻² umol/ml; MFC99.5 (Penicillium ochrochloron [30]): 19.8 ×10⁻² umol/ml; MIC (Candida albicans [31]): 99 µM (≈ 40.1 µg/mL); MFC99.5 (Candida albicans [32]): 19.8 ×10⁻² umol/ml |
| O=C(Cc1nsc2ccccc12)NN1C(=O)CSC1c1ccccc1Cl (stereo not drawn) | 144 (≈ 58.2 µg/mL) | 198 (≈ 80 µg/mL) | 37.2 | 273 (≈ 110 µg/mL) | 37.2 | 198 (≈ 80 µg/mL) | 37.2 | 372 (≈ 150 µg/mL) | 74.4 | 198 (≈ 80 µg/mL) | 37.2 | 273 (≈ 110 µg/mL) | 37.2 | 372 (≈ 150 µg/mL) | 74.4 | 198 (≈ 80 µg/mL) | 37.2 | 74 (≈ 29.9 µg/mL) | 372 (≈ 150 µg/mL) | 74.4 | MFC99.5 (Aspergillus versicolor [21]): 10 ×10⁻² umol/ml; MIC (Aspergillus ochraceus [22]): 100 µM (≈ 40.4 µg/mL); MFC99.5 (Aspergillus ochraceus [23]): 19.8 ×10⁻² umol/ml; MIC (Aspergillus niger [24]): 144 µM (≈ 58.2 µg/mL); MFC99.5 (Aspergillus niger [25]): 19.8 ×10⁻² umol/ml; MIC (Trichoderma viride [26]): 74 µM (≈ 29.9 µg/mL); MFC99.5 (Trichoderma viride [27]): 10 ×10⁻² umol/ml; MIC (Talaromyces funiculosus [28]): 100 µM (≈ 40.4 µg/mL); MFC99.5 (Talaromyces funiculosus [29]): 19.8 ×10⁻² umol/ml; MFC99.5 (Penicillium ochrochloron [30]): 19.8 ×10⁻² umol/ml; MIC (Candida albicans [31]): 198 µM (≈ 80 µg/mL); MFC99.5 (Candida albicans [32]): 37.2 ×10⁻² umol/ml |
